For 29 compounds, IC50 results are on record in patent US20230192677A1, “CYP11A1 INHIBITORS” (ORION CORPORATION, priority 2020, published 2023).

The target in the experiment is T1, CYP11A1 (Homo sapiens, UniProt P05108).
T1 construct: human H295R adrenocortical carcinoma cell line was used as source of enzyme; endogenous in cells; host or cells: H295R human adrenocortical carcinoma cells
T1 sequence (P05108 40-521): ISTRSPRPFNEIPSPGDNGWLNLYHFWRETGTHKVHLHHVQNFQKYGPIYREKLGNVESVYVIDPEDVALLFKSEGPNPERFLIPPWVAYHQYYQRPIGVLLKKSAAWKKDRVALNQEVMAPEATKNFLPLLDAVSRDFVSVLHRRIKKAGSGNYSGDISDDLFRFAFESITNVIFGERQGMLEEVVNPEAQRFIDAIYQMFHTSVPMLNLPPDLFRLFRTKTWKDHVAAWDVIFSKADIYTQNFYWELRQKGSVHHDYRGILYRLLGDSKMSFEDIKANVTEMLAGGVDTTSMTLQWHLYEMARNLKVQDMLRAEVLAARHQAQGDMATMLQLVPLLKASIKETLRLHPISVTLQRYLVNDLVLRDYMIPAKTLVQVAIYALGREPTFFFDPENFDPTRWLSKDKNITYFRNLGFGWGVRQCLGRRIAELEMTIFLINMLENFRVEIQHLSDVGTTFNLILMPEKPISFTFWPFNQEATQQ
Kind of experiment: CYP11A1 inhibition, isocaproic acid release assay (IARA) in H295R cells. The note with it: human H295R adrenocortical carcinoma cell line, three days, 3 nM [24,25-3H]-labelled cholesterol; read-out: IC50 on CYP11A1 inhibition (Group). The class given is cell-based. The procedure:
The ability of the test compounds to inhibit conversion of cholesterol to pregnenolone and isocaproic acid was measured by modification of isocaproic acid release assay (IARA) described by Ruangwises et al. (Biology of Reproduction 1991; 45(1):143-50) except that human H295R adrenocortical carcinoma cell line was used as source of enzyme and extraction was done with dextran-coated charcoal suspension (Isomaa, V. et al., Endocrinology 1982; 111(3):833-843). […] To determine the half maximal inhibitory concentration (IC50) of the test compounds on CYP11A1 inhibition, the cells were treated for three days with increasing concentrations of the test compounds in the presence of 3 nM [24,25-3H]-labelled cholesterol (American Radiolabelled Chemicals). The final DMSO concentration was 1%. Cell culture medium was extracted with dextran-coated charcoal suspension and the radiolabelled isocaproic acid was determined by mixing 100 μl of supernatant fraction in 200 μl of scintillation fluid (OptiPhase SuperMix, Perkin Elmer). Radioactivity was measured using a Microbeta scintillation counter (1450 MicroBeta Trilux, Wallac). All the test compounds were studied at 10 concentrations in duplicates.
Take `CCS(=O)(=O)c1ccc(COc2ccc(CN3Cc4ccccc4C3)cc2S(C)(=O)=O)cc1` [Compound 76, 2-(4-((4-(Ethylsulfonyl)benzyl)oxy)-3-(methylsulfonyl)benzyl)isoindoline]: the 50% inhibitory concentration (IC50) is < 100 nM. Turning to `CS(=O)(=O)c1ccc(COc2ccc(CN3Cc4ccccc4C3)cc2S(C)(=O)=O)cc1` [Compound 82, 2-(3-(Methylsulfonyl)-4-((4-(methylsulfonyl)benzyl)oxy)benzyl)isoindoline], the half-maximal inhibitory concentration (IC50) is < 100 nM. For `CC(O)c1ccc(COc2ccc(CN3Cc4ccccc4C3)cc2S(C)(=O)=O)cc1` (centres unmarked) [Compound 92b, 1-(4-((4-(Isoindolin-2-ylmethyl)-2-(methylsulfonyl)phenoxy)methyl)phenyl)-ethanol] the value was < 100 nM. The value for `CS(=O)(=O)N1CCC(COc2coc(CN3Cc4ccc(-c5ncco5)cc4C3)cc2=O)CC1` [Compound 3, 5-((1-(Methylsulfonyl)piperidin-4-yl)methoxy)-2-((5-(oxazol-2-yl)isoindolin-2-yl)methyl)-4H-pyran-4-one] was < 100 nM; that for `CC(O)C1CCC(COc2ccc(CN3Cc4ccccc4C3)cc2S(C)(=O)=O)CC1` (centres unmarked) [Compound 94, 1-(4-((4-(Isoindolin-2-ylmethyl)-2-(methylsulfonyl)phenoxy)methyl)cyclohexyl)ethan-1-ol] was 201 to 2000 nM. The value for `CS(=N)c1ccc(COc2ccc(CN3Cc4ccccc4C3)cc2S(C)(=O)=O)cc1` (centres unmarked) [Compound 84, (4-((4-(Isoindolin-2-ylmethyl)-2-(methylsulfonyl)phenoxy)methyl)phenyl)-(methyl)-λ^4-sulfanimine] was < 100 nM. As for `CCCCS(=O)(=O)c1cc(CN2Cc3ccccc3C2)ccc1OCC1CCN(S(C)(=O)=O)CC1` [Compound 28, 2-(3-(Butylsulfonyl)-4-((1-(methylsulfonyl)piperidin-4-yl)methoxy)benzyl)iso-indoline], the IC50 is < 100 nM. For the compound `CS(=O)(=O)N1CCC(COc2coc(CN3Cc4ccccc4C4(CC4)C3)cc2=O)CC1` [Compound 103, 2-((1′H-Spiro[cyclopropane-1,4′-isoquinolin]-2′(3′H)-yl)methyl)-5-((1-(methyl-sulfonyl)piperidin-4-yl)methoxy)-4H-pyran-4-one], the IC50 was in the range of 201 to 2000 nM. For the compound `CCS(=O)(=O)c1cc(CN2Cc3ccc(C(F)(F)F)cc3C2)ccc1OCC1CCN(S(C)(=O)=O)CC1` [Compound 27, 2-(3-(Ethylsulfonyl)-4-((1-(methylsulfonyl)piperidin-4-yl)methoxy)benzyl)-5-(trifluoromethyl)isoindoline], the IC50 is < 100 nM.

Regarding `O=c1cc(CN2CCc3ccccc3C2)occ1OCC1CC2(C1)CN(c1ncccn1)C2` [Compound 50, 2-((3,4-Dihydroisoquinolin-2(1H)-yl)methyl)-5-((2-(pyrimidin-2-yl)-2-azaspiro-[3.3]heptan-6-yl)methoxy)-4H-pyran-4-one], the IC50 was 201 to 2000 nM. For `COCCN(C)C(=O)c1ccc(COc2ccc(CN3Cc4ccccc4C3)cc2S(C)(=O)=O)cc1` [Compound 69, 4-((4-(Isoindolin-2-ylmethyl)-2-(methylsulfonyl)phenoxy)methyl)-N-(2-methoxyethyl)-N-methylbenzamide] the value was < 100 nM; for `CCS(=N)(=O)c1ccc(COc2ccc(CN3Cc4ccccc4C3)cc2S(C)(=O)=O)cc1` (centres unmarked) [Compound 71, Ethyl(imino)(4-((4-(isoindolin-2-ylmethyl)-2-(methylsulfonyl)phenoxy)methyl)-phenyl)-λ^6-sulfanone], < 100 nM; for `CC[S@](=N)(=O)c1ccc(COc2ccc(CN3Cc4ccccc4C3)cc2S(C)(=O)=O)cc1` [Compound 97, (S)-Ethyl(imino)(4-((4-(isoindolin-2-ylmethyl)-2-(methylsulfonyl)phenoxy)-methyl)phenyl)-λ^6-sulfanone], < 100 nM. For `CC(C)(C)OC(=O)N1CCC2(CC1)CC(COc1coc(CN3CCc4ccccc4C3)cc1=O)C2` [Compound 35, tert-Butyl 2-(((6-((3,4-dihydroisoquinolin-2(1H)-yl)methyl)-4-oxo-4H-pyran-3-yl)oxy)methyl)-7-azaspiro[3.5]nonane-7-carboxylate] the value was 201 to 2000 nM; for `CC(=O)N1CCC(COc2ccc(CN3Cc4ccccc4C3)cc2S(C)(=O)=O)CC1` [Compound 87, 1-(4-((4-(Isoindolin-2-ylmethyl)-2-(methylsulfonyl)phenoxy)methyl)piperidin-1-yl)ethan-1-one], 201 to 2000 nM; for `CC(C)(O)c1ccc(COc2ccc(CN3Cc4ccccc4C3)cc2S(C)(=O)=O)cc1` [Compound 86, 2-(4-((4-(Isoindolin-2-ylmethyl)-2-(methylsulfonyl)phenoxy)methyl)phenyl)-propan-2-ol], < 100 nM. For `CC(C)C(=O)N1CCC(COc2ccc(CN3Cc4ccccc4C3)cc2S(C)(=O)=O)CC1` [Compound 73, 1-(4-((4-(Isoindolin-2-ylmethyl)-2-(methylsulfonyl)phenoxy)methyl)piperidin-1-yl)-2-methylpropan-1-one] the value was < 100 nM. In the case of `CO/N=C(\C)c1ccc2c(c1)CN(Cc1cc(=O)c(OCC3CCN(S(C)(=O)=O)CC3)co1)C2` [Compound 91, (E)-2-((5-(1-(Methoxyimino)ethyl)isoindolin-2-yl)methyl)-5-((1-(methylsulfonyl)piperidin-4-yl)methoxy)-4H-pyran-4-one], the concentration for half-maximal inhibition (IC50) lay in the range of 101 to 200 nM.

On to `CS(=N)(=O)c1ccc(COc2ccc(CN3Cc4ccccc4C3)cc2S(C)(=O)=O)cc1` (centres unmarked) [Compound 72, Imino(4-((4-(isoindolin-2-ylmethyl)-2-(methylsulfonyl)phenoxy)methyl)phenyl)(methyl)-λ^6-sulfanone], for which the IC50 is < 100 nM.

In the case of `CS(=O)(=O)c1cc(CN2Cc3ccc(-c4cnco4)cc3C2)ccc1OCC1CCN(S(C)(=O)=O)CC1` [Compound 13a, 5-(2-(3-(Methylsulfonyl)-4-((1-(methylsulfonyl)piperidin-4-yl)methoxy)-benzyl)isoindolin-5-yl)oxazole], the 50% inhibitory concentration (IC50) fell in the range of 101 to 200 nM. Turning to `CS(=O)(=O)c1cc(CN2Cc3ccc(-c4cncs4)cc3C2)ccc1OCC1CCN(S(C)(=O)=O)CC1` [Compound 14, 5-(2-(3-(Methylsulfonyl)-4-((1-(methylsulfonyl)piperidin-4-yl)methoxy)benzyl)-isoindolin-5-yl)thiazole], the IC50 is < 100 nM. Regarding `CS(=O)(=O)N1CCC(COc2ccc(CN3Cc4ccccc4C3)cc2S(=O)(=O)C2CC2)CC1` [Compound 26, 2-(3-(Cyclopropylsulfonyl)-4-((1-(methylsulfonyl)piperidin-4-yl)methoxy)-benzyl)isoindoline], the concentration for half-maximal inhibition (IC50) was in the range of 101 to 200 nM. For `CN(C)C(=O)C1CCC(COc2ccc(CN3Cc4ccccc4C3)cc2S(C)(=O)=O)CC1` (centres unmarked) [Compound 74, 4-((4-(Isoindolin-2-ylmethyl)-2-(methylsulfonyl)phenoxy)methyl)-N,N-dimethylcyclohexane-1-carboxamide] the value was < 100 nM; for `CS(=O)(=O)c1cc(CN2Cc3ccccc3C2)ccc1OCc1ccc(C(=O)N=S(C)(C)=O)cc1` [Compound 78, N-(Dimethyl(oxo)-λ^6-sulfaneylidene)-4-((4-(isoindolin-2-ylmethyl)-2-(methyl-sulfonyl)phenoxy)methyl)benzamide], < 100 nM. Turning to `CS(=O)(=O)N1CCC(COc2coc(CN3Cc4ccc(-c5ccno5)cc4C3)cc2=O)CC1` [Compound 4, 2-((5-(Isoxazol-5-yl)isoindolin-2-yl)methyl)-5-((1-(methylsulfonyl)piperidin-4-yl)methoxy)-4H-pyran-4-one], the half-inhibitory concentration (IC50) lay in the range of 101 to 200 nM. For `CCC(=O)N1CCC(COc2ccc(CN3Cc4ccccc4C3)cc2S(C)(=O)=O)CC1` [Compound 70] the value was 101 to 200 nM. Consider `CS(=N)(=O)c1ccc(COc2ccc(CN3Cc4ccc(C(F)(F)F)cc4C3)cc2S(C)(=O)=O)cc1` (centres unmarked) [Compound 85, Imino(methyl)(4-((2-(methylsulfonyl)-4-((5-(trifluoromethyl)isoindolin-2-yl)methyl)phenoxy)methyl)phenyl)-λ^6-sulfanone], for which the 50% inhibitory concentration (IC50) was < 100 nM. The value for `CC(C)(C)OC(=O)N1CCC2(CC1)CC(Oc1coc(CN3CCc4ccccc4C3)cc1=O)C2` [Compound 32, tert-Butyl 2-((6-((3,4-dihydroisoquinolin-2(1H)-yl)methyl)-4-oxo-4H-pyran-3-yl)oxy)-7-azaspiro[3.5]nonane-7-carboxylate] was 101 to 200 nM; that for `CS(=O)(=O)N1CCC(COc2coc(CN3Cc4ccc(-c5nncs5)cc4C3)cc2=O)CC1` [Compound 6, 2-((5-(1,3,4-Thiadiazol-2-yl)isoindolin-2-yl)methyl)-5-((1-(methylsulfonyl)-piperidin-4-yl)methoxy)-4H-pyran-4-one] was 101 to 200 nM.

As a reminder, the IC50 is the concentration that inhibits the measured activity by half.
